≈ marks a conversion by molar mass, not a printed value. Where “and” joins values, the source holds several entries; their conditions need not be identical. Identical values can stand only once. *1 amine or outer side, *2 acyl side, *3 side chain or, on linkers, in order; H or OH if unused. Where a SMILES comes first, the peptide text is derived from it. [ ]: non-standard residue; d: D form. X1 = C#CCn1cc(C[C@H](N[*:1])C(=O)[*:2])c2ccccc21; NMeLeu(5-OH,4R) = CN[C@@H](C[C@@H](C)CO)C(=O)O; Phe(βR-OMe) = CO[C@H](c1ccccc1)[C@H](N)C(=O)O; Trp(1-Me) = Cn1cc(C[C@H](N)C(=O)O)c2ccccc21; NMeL = CN[C@@H](CC(C)C)C(=O)O; Pra = C#CC[C@H](N)C(=O)O
Test system: Mtb (RpoB S450L) ATCC 35838
Assay type: cell-based, Mycobacterium tuberculosis

Q: For `C#CCn1cc(C[C@@H]2NC(=O)[C@H](C(C)C)NC(=O)[C@H](CC(C)C)N(C)C(=O)[C@H](C(C)C)NC(=O)[C@H]([C@H](OC)c3ccccc3)NC(=O)[C@H](C)NC(=O)[C@H](C[C@@H](C)CO)N(C)C2=O)c2ccccc21` [Compound 5] (cyclo(A[Phe(βR-OMe)]V[NMeL]V[X1][NMeLeu(5-OH,4R)])), which MIC is on record?
A: 0.4 ± 0.0 µM (≈ 0.376 µg/mL)

Q: Which MIC does the source give for `COC(c1ccccc1)C1NC(=O)C(C)NC(=O)C(CC(C)CO)N(C)C(=O)C(Cc2cn(Cc3cn(CCOCCOCCOCCOCCn4cc(Cn5cc(CC6NC(=O)C(C(C)C)NC(=O)C(CC(C)C)N(C)C(=O)C(C(C)C)NC(=O)C(C(OC)c7ccccc7)NC(=O)C(C)NC(=O)C(CC(C)CO)N(C)C6=O)c6ccccc65)nn4)nn3)c3ccccc23)NC(=O)C(C(C)C)NC(=O)C(CC(C)C)N(C)C(=O)C(C(C)C)NC1=O` (stereo not shown) [Compound 8] here?
A: 0.2 ± 0.0 µM (≈ 0.434 µg/mL)

Q: For `C#CC[C@@H]1NC(=O)[C@H](CC(C)C)N(C)C(=O)[C@H](C(C)C)NC(=O)[C@H]([C@H](OC)c2ccccc2)NC(=O)[C@H](C)NC(=O)[C@H](C[C@@H](C)CO)N(C)C(=O)[C@H](Cc2cn(C)c3ccccc23)NC1=O` [Compound 10] (cyclo(A[Phe(βR-OMe)]V[NMeL][Pra][Trp(1-Me)][NMeLeu(5-OH,4R)])), which MIC is on record?
A: 1.6 ± 0.0 µM (≈ 1.46 µg/mL)

Q: `COC(c1ccccc1)C1NC(=O)C(C)NC(=O)C(CC(C)CO)N(C)C(=O)C(Cc2cn(C)c3ccccc23)NC(=O)C(Cc2cn(CCCCCn3cc(CC4NC(=O)C(CC(C)C)N(C)C(=O)C(C(C)C)NC(=O)C(C(OC)c5ccccc5)NC(=O)C(C)NC(=O)C(CC(C)CO)N(C)C(=O)C(Cc5cn(C)c6ccccc56)NC4=O)nn3)nn2)NC(=O)C(CC(C)C)N(C)C(=O)C(C(C)C)NC1=O` (stereo not shown) [Compound 12] was tested. Which MIC did it give?
A: 0.2 ± 0.0 µM (≈ 0.396 µg/mL)

Q: For `NNC(=O)c1ccncc1` [Isoniazid], which MIC is on record?
A: 0.5 ± 0.0 µM and 0.45 µM

Q: `COc1c(N2C[C@@H]3CCCN[C@@H]3C2)c(F)cc2c(=O)c(C(=O)O)cn(C3CC3)c12` [Moxifloxacin, reference compound] was tested. Which MIC did it give?
A: 0.3 ± 0.0 µM and 0.31 µM

Q: `CO[C@H]1/C=C/O[C@@]2(C)Oc3c(C)c(O)c4c(O)c(c(/C=N/N5CCN(C)CC5)c(O)c4c3C2=O)NC(=O)/C(C)=C\C=C\[C@H](C)[C@H](O)[C@@H](C)[C@@H](O)[C@@H](C)[C@H](OC(C)=O)[C@@H]1C` [Rifampicin, reference compound] was tested. Which MIC did it give?
A: >38.9 µM and >38.88 µM
